In US12378194B2, “N, n-dimethyltryptamine salts and crystalline salt forms” (ATAI Therapeutics, Inc., priority 2021, dated 2025):

Tests used:
[1] = Dynamic vapor sorption (DVS) hygroscopicity; format: physicochemical; conditions: for Hygroscopicity [DVS], grade in words: DVS 5% to 95% RH; for DVS wt. loss 95% to 5% RH: desorption 95% to 5% RH; for DVS wt. gain 5% to 95% RH / DVS water uptake 5% to 95% RH: sorption 5% to 95% RH; for DVS water uptake 5% to 95% RH / DVS water uptake 5% to 75% RH / DVS water uptake 75% to 95% RH: mol water per mol; for DVS hysteresis: sorption vs desorption; for DVS wt. loss 75% to 5% RH: desorption 75% to 5% RH; for DVS wt. loss 95% to 75% RH: desorption 95% to 75% RH; for DVS wt. gain 5% to 75% RH / DVS water uptake 5% to 75% RH: sorption 5% to 75% RH; for DVS wt. gain 75% to 95% RH / DVS water uptake 75% to 95% RH: sorption 75% to 95% RH
[2] = Physical appearance and form stability at high relative humidity; format: physicochemical; conditions: for Hygroscopicity [physical appearance at high RH]: 90% RH, RT
[3] = free base; cited from earlier work
[4] = Brito-da-Costa et al 2020; cited from earlier work

For CN(C)CCc1c[nH]c2ccccc12.O=C(O)/C=C/C(=O)O [DMT Fumarate Form A], the “Hygroscopicity [DVS], grade in words” value [1] was “limited”, the “Hygroscopicity [DVS], grade in words” value ([1]; listed as Fumarate A) was “Limited hygroscopicity” and the “DVS wt. loss 95% to 5% RH” value [1] was 0.679% wt. The “DVS wt. loss 95% to 5% RH” value ([1]; listed as Fumarate A) was 95% to 5%: 0.679% wt. loss some, the “DVS wt. gain 5% to 95% RH” value [1] was 0.573% wt and the “DVS wt. gain 5% to 95% RH” value ([1]; listed as Fumarate A) was 0.573 % wt. The “DVS water uptake 5% to 95% RH” value [1] was “(0.1 mol/mol”, the “DVS water uptake 5% to 95% RH” value ([1]; listed as Fumarate A) was 0.1 mol/mol and the DVS hysteresis [1] was “hysteresis”. The “Hygroscopicity [physical appearance at high RH]” value ([2]; 7 days) was “white solid”.
In the case of CN(C)CCc1c[nH]c2ccccc12.O=C(O)C[C@H](O)C(=O)O [DMT Malate Form A], the “Hygroscopicity [DVS], grade in words” value [1] is reported as “significant”, the “Hygroscopicity [DVS], grade in words” value ([1]; listed as Malate A) is reported as “Significant hygroscopicity” and the “DVS wt. loss 75% to 5% RH” value [1] is reported as 1.37% wt. loss. For the same compound, the “DVS wt. loss 75% to 5% RH” value ([1]; listed as Malate A) was 75% to 5%: 1.37% wt loss % wt, the “DVS wt. loss 95% to 75% RH” value [1] was 9.59% wt. loss and the “DVS wt. loss 95% to 75% RH” value ([1]; listed as Malate A) was 95% to 75%: 9.59% wt. loss. For the same compound, the “DVS wt. gain 5% to 75% RH” value [1] was 1.21% wt. gain, the “DVS wt. gain 5% to 75% RH” value ([1]; listed as Malate A) was 1.21 % wt and the “DVS water uptake 5% to 75% RH” value [1] was “(0.4 mol/mol”. The “DVS water uptake 5% to 75% RH” value ([1]; listed as Malate A) was 0.4 mol/mol, the “DVS wt. gain 75% to 95% RH” value [1] was 9.75% wt. gain and the “DVS wt. gain 75% to 95% RH” value ([1]; listed as Malate A) was 9.75 % wt. For the same compound, the “DVS water uptake 75% to 95% RH” value [1] was “(1.7 mol/mol”, the “DVS water uptake 75% to 95% RH” value ([1]; listed as Malate A) was 1.7 mol/mol and the “Hygroscopicity [physical appearance at high RH]” value ([2]; 7 days) was “white solid”.
With CN(C)CCc1c[nH]c2ccccc12.O=C(O)CCC(=O)O [DMT Succinate Form A] the “Hygroscopicity [DVS], grade in words” value [1] was “low”, the “Hygroscopicity [DVS], grade in words” value ([1]; listed as DMT succinate Form A) was “least hygroscopic” and the “Hygroscopicity [DVS], grade in words” value ([1]; listed as Succinate A) was “Low hygroscopicity”. The “DVS wt. loss 95% to 5% RH” value [1] was 0.175% wt, the “DVS wt. loss 95% to 5% RH” value ([1]; listed as Succinate A) was 95% to 5%: 0.175% wt. loss some and the “DVS wt. gain 5% to 95% RH” value [1] was 0.171% wt. For the same compound, the “DVS wt. gain 5% to 95% RH” value ([1]; listed as Succinate A) was 0.171 % wt, the “DVS water uptake 5% to 95% RH” value [1] was “(0.03 mol/mol” and the “DVS water uptake 5% to 95% RH” value ([1]; listed as Succinate A) was 0.03 mol/mol. For the same compound, the DVS hysteresis [1] was “hysteresis”, the “Hygroscopicity [physical appearance at high RH]” value ([2]; 7 days) was “white solid” and the “Physical form after water absorption” value ([2]; after water absorption) was “preservation of the physical form”.
With CN(C)CCc1c[nH]c2ccccc12.O=S(=O)(O)O [DMT Sulfate Form A] the “Hygroscopicity [physical appearance at high RH]” value ([2]; 1 day) was “oil/deliquesced”.
In the case of CN(C)CCc1c[nH]c2ccccc12 [DMT free base, N,N-dimethyltryptamine], the Solubility in water [3] is given as “extremely low” and the “Degradation rate in solution” value [4] is given as “fast degradation rate”.
